Data on five compounds can be found in patent publication US4766108A, “Tyr-Arg-vasopressin antagonists” (Smith Kline Beckman Corporation, priority 1986, dated 1988).

Numbered stars: 1 amine (or outer) side, 2 acyl side, 3 side chain; on linkers, the order of the positions; unused ones are H or OH. Bridge positions count the residues as written; N and C are the ends. Square brackets hold non-standard residues; d marks the D form. Peptide text beside a SMILES is read from it. X1 = O=C(CC1(S[*:2])CCCCC1)[*:1]

Test [1] deals with T1, vasopressin receptors (V2 -receptors) in the porcine renal medullary membrane (Sus scrofa, UniProt P32307).
T1 construct: the porcine renal medullary membrane; It is derived from the equation for; from tissue; host or cells: porcine (hog) kidney medullary membranes
In words: [3H]-LVP binding, porcine renal medullary membrane (Kbind). As to conditions: affinity of ligand for receptor in porcine renal medullary membrane; from IC50 of [3H]-LVP binding, Kb = IC50/(1 + L/KD). The method, then:
(§1) V2 -antagonistic activity toward the natural anti-diuretic hormone (anti-ADH activity) is determined, in vitro, in the medullary tissue of hog or human kidneys and, in vivo, in the hydropenic rat. The in vitro assay procedures for vasopressin stimulated adenylate cyclase activation or vasopressin binding activity are described by F. Stassen et al., J. Pharmacology and Experimental Therapeutics, 223, 50-54 (1982). V1 -antagonistic activity is determined by procedures using the rat thoracic aortic tissue and plasma membranes of rat liver. These procedures are described in the noted Stassen publication and in a publication at the lst International Conference on Diuretics, Miami, Fla., March (1984). Oxytocin antagonism is determined as described by W. Sawyer et al., Endocrinology, 106 81 (1979). | ^a Kbind is a measure of the affinity of ligand for receptor in | the porcine renal medullary membrane. It is derived from the equation for | competitive inhibition Kb = IC50 /(1 + L/KD) where | IC50 is the concentration of the ligand for 50% inhibition of [^ | H]-LVP binding, L is the concentration of the ligand, and KD is the | dissociation constant of [ ^3 H]-LVP.

Test [2] addresses T2, V1 receptor, human liver membrane (Homo sapiens, UniProt P37288).
T2 construct: from tissue; host or cells: human liver membranes
In words: Binding to human liver membrane (V1 receptor). As to conditions: read-out: Kbind human liver (V1 receptor). The method, then:
as §1, with “(1979).” for “(1979). | ^a Kbind is a measure of the affinity of ligand for receptor in | the porcine renal medullary membrane. It is derived from the equation for | competitive inhibition Kb = IC50 /(1 + L/KD) where | IC50 is the concentration of the ligand for 50% inhibition of [^ | H]-LVP binding, L is the concentration of the ligand, and KD is the | dissociation constant of [ ^3 H]-LVP.”
^d Kbind relates to human liver membrane activity.

T1 sequence (P32307 whole entry): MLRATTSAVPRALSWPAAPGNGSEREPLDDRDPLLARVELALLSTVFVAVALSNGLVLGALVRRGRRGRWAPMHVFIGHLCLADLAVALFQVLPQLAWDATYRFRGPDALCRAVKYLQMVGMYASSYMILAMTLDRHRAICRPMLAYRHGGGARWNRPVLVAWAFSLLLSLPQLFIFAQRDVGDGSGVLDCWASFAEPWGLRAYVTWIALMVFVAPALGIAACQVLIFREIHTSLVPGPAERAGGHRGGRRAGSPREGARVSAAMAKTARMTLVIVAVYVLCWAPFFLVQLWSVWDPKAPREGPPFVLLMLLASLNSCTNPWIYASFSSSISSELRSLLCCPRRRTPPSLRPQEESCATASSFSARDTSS
T2 sequence (P37288 whole entry): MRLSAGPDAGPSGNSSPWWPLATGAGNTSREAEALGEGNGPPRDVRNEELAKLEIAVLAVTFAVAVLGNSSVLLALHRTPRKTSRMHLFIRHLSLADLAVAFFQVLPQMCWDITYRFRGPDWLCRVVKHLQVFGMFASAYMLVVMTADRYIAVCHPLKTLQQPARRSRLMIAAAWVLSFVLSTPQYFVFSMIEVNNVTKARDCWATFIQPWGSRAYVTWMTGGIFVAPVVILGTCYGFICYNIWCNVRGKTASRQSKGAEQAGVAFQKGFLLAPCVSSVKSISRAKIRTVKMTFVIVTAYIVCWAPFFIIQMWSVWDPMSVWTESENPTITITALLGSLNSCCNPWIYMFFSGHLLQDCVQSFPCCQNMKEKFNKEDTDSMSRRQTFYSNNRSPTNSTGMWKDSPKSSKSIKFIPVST

In the case of `CCOc1ccc(C[C@H]2NC(=O)CC3(CCCCC3)SSC[C@@H](C(=O)N[C@@H](Cc3ccc(O)cc3)C(=O)N[C@@H](CCCNC(=N)N)C(N)=O)NC(=O)[C@H](CC(N)=O)NC(=O)[C@H](C(C)C)NC(=O)[C@H](Cc3ccccc3)NC2=O)cc1` [No. 1, [1-(β-mercapto-β,β-cyclopentamethylene-propionic acid)-2-(O-ethyl)-D-tyrosine-4-valine-7-tyrosine-8-arginine-desglycine]-vasopressin] ([dY](Et)FVNCYR-NH2; linker N-5 via X1), the Ki in test [1] is 14 nM.
On to `CCOc1ccc(C[C@H]2NC(=O)CC3(CCCCC3)SSC[C@@H](C(=O)N[C@@H](CCCNC(=N)N)C(=O)N[C@@H](Cc3ccc(O)cc3)C(N)=O)NC(=O)[C@H](CC(N)=O)NC(=O)[C@H](C(C)C)NC(=O)[C@H](Cc3ccccc3)NC2=O)cc1` [No. 2, [1-(β-mercapto-β,β-cyclopentamethylene-propionic acid)-2-(O-ethyl)-D-tyrosine-4-valine-7-arginine-8-tyrosine-9-desglycine]-vasopressin] ([dY](Et)FVNCRY-NH2; linker N-5 via X1), for which the Ki was determined as 1.8 nM in test [2] and 23 nM in test [1].
On to `CCOc1ccc(C[C@H]2NC(=O)CC3(CCCCC3)SSC[C@@H](C(=O)N[C@@H](CCCNC(=N)N)C(=O)N[C@@H](CCCNC(=N)N)C(N)=O)NC(=O)[C@H](CC(N)=O)NC(=O)[C@H](C(C)C)NC(=O)[C@H](Cc3ccccc3)NC2=O)cc1` [compound 3] ([dY](Et)FVNCRR-NH2; linker N-5 via X1), for which the Ki in test [1] was 2.7 nM.
On the same count and under the same terms, to `CCOc1ccc(C[C@H]2NC(=O)CC3(CCCCC3)SSC[C@@H](C(=O)N[C@@H](CCCCN)C(=O)N[C@@H](CCCNC(=N)N)C(N)=O)NC(=O)[C@H](CC(N)=O)NC(=O)[C@H](C(C)C)NC(=O)[C@H](Cc3ccccc3)NC2=O)cc1` [compound 4] ([dY](Et)FVNCKR-NH2; linker N-5 via X1) belongs 8.8 nM.
`CCOc1ccc(C[C@H]2NC(=O)CC3(CCCCC3)SSC[C@@H](C(=O)N[C@@H](CCCNC(=N)N)C(N)=O)NC(=O)[C@H](CC(N)=O)NC(=O)[C@H](C(C)C)NC(=O)[C@H](Cc3ccccc3)NC2=O)cc1` [compound 5] ([dY](Et)FVNCR-NH2; linker N-5 via X1): the Ki in test [2] is 1.2 nM; in test [1] it was 11 nM.
